Data taken from patent US20240307335A1, “IRG Blockade to Armor CAR T Cells Against Myeloid Dysfunction” (ROSWELL PARK CANCER INSTITUTE CORPORATION, priority 2023, published 2024).

Assays:
[1] = system: CAR T cells cocultured with Eμ-myc cells with or without macrophages (imMac); experiment: Expansion assay of mCherry+ CAR T cells (IncuCyte live cell analysis) in cocultures; assay type: cell-based, mouse; details: for CAR T cell expansion in cocultures with imMac / CAR T cell expansion: over 48 h; for CAR T cell expansion: CAR T cells cocultured with Eμ-myc cells without macrophages, agent present
Procedure: Macrophage development and polarization: BMDMs were generated from bone marrow cells harvested from femurs and tibias of WT or iNOS^−/− mice. […] On day 3, 10 ml of fresh medium with 20 ng/ml M-CSF was added. On day 5, the culture medium was entirely discarded and replaced by 15 ml of fresh medium with 20 ng/ml M-CSF. On day 6, BMDMs were activated for 24 h with 20 ng/ml of IL-4 and IL-10 (Peprotech) to develop imMac or cultured in media only to use as unMac. M-CSF (20 ng/ml) was added during activation with cytokines. On day 7, adherent cells were harvested by gentle scraping and used for in vitro experiments.
Expansion assay: The expansion of mCherry^+ CAR T cells was determined by an IncuCyte S3 live cell analysis system (Essen Bioscience). 2×10^4 Eμ-myc cells and 2×10^4 CAR T cells were cocultured in the absence or presence of 0.5×10^4 macrophages (CAR T:Eμ-myc cell:Macrophage=1:1:0.25, unless otherwise indicated in the figures) in a 96-well black-walled clear bottom plate in 120 μl of media. Cell images were captured at 4× magnification. The expansion index was calculated by dividing the total integrated red intensity (RCU×m^2/mm^2) at each time point by the first time point.
Immunoregulatory actions of macrophages on CAR T cells: To explore how M2-like macrophages may impact the cellular function of CAR T cells, the study employed a syngeneic coculture system (FIG. 3A). […] The BMDMs were either unpolarized (unMac) or induced to differentiate into M2-like macrophages by culturing with type 2 cytokines IL-4 and IL-10. […] The study next explored the impact of imMac on CAR T cell effector function. To exclude the direct contribution of macrophage effector activities in these functional assays, CAR T cells, Eμ-myc cells, and macrophages were first cocultured for 48 hours (FIG. 3G). Next, CAR T cells isolated from the cocultures were evaluated for their effector function against fresh Eμ-myc cells.

[2] = system: Eμ-myc cells; experiment: Luciferase-based killing assay with CAR T cells isolated from initial coculture; assay type: cell-based, mouse; details: lysis at 24 h; for lysis of Eμ-myc cells by CAR T cells (ability to kill tumor cells): CAR T cells isolated after 48 h initial coculture with Eμ-myc cells with NCX-4016 (100 μM) or PNT (50 μM), no macrophages
Procedure: (§1) CAR T cell isolation from initial coculture for subsequent downstream assays: 1×10^6 CAR T cells and 1×10^6 Eμ-myc-GFP-FFL cells were cocultured in the absence or presence of 0.25×10^6 macrophages in a 6-well plate in 6 ml of media for 48 h. After initial coculture, cells were harvested, and T cells were isolated using Mouse T Cell Isolation Kit ([…] Technologies). […] Percentage of CAR-expressing T cells was determined with flow cytometry and were subsequently used for downstream assays.
Luciferase-based killing assay: 2×10^4 Eμ-ALL-GFP-FFL cells were cocultured with CAR T cells at different effector-to-target ratios in a 96-well white-walled plate in 100 μl of media. Following incubation, 100 μl luciferase substrate reagent (ONE-Glo Luciferase assay system, Promega) was added to each well. Target cells alone were plated at the same cell density to determine maximum luciferase signals. Emitted luminescence was detected in the microplate reader (GloMax, Promega). Percent lysis was determined as (1−sample signal/maximum signal)×100.

[3] = system: CAR T cells cocultured with fresh Eμ-myc cells; experiment: Cytokine secretion assay (Ella automated ELISA) with CAR T cells isolated from initial coculture; assay type: cell-based, mouse; details: for secretion of effector cytokine IFN-γ by CAR T cells / secretion of effector cytokine TNF-α by CAR T cells: CAR T cells isolated after 48 h coculture with Eμ-myc cells with NCX-4016 (100 PM) or PNT (50 μM), supernatants at 24 h
Procedure: as §1
Cytokine secretion assay: 2×10^4 Eμ-myc cells were cocultured with 2×10^4 CAR T cells in a 96-well plate in a total volume of 100 μl of media. Supernatants were collected and analyzed for IFN-γ and TNF-α secretion using Ella automated immunoassay system (Proteinsimple Bio-techne) according to manufacturer's instructions.

[4] = system: iNOS; experiment: Griess assay of NO levels in coculture supernatants; assay type: cell-based, mouse; details: L-NIL 50 μM at 48 h, anti-IFN-γ 10 μg/mL at 44 h
Procedure: Griess assay: 2×10^4 Eμ-myc cells and 2×10^4 CAR T cells were cocultured in the presence or absence of 0.5×10^4 macrophages in a 96-well plate in 120 μl of media. Coculture supernatants were harvested, and nitric oxide levels were measured using Griess reagent system (Promega) according to manufacturer's instructions. Absorbance was read at 560 nm using microplate reader (GloMax, Promega), and NO2 concentrations were determined by standard curve. Standard curve was prepared with diluting 0.1M sodium nitrite standard (provided in the kit) with the culture media used for experiments.

[5] = system: arginine metabolism by imMac; experiment: Global metabolomics (LC-MS) of coculture supernatants; assay type: cell-based, mouse; details: L-NIL (50 PM)
Procedure: Metabolomics and ^13C6-labeled glucose tracing analyses: For global metabolomics analysis of cell-cultured medium, the cell-free medium was obtained by performing rapid centrifugation (17,000×g, 10 sec, room temperature) to collect the supernatant. The metabolites present in 20 μl of the cell-cultured medium were then extracted using 80 μl of ice-cold MeOH. Following a 30 min incubation on ice and subsequent centrifugation (17,000×g, 20 min, 4° C.), the supernatant was subjected to LC-HRMS analysis.
LC-HRMS analysis was performed on a Vanquish UPLC coupled with a Q-Exactive HF mass spectrometer, employing the same conditions as the previously established methods 76. A ZIC-pHILIC LC column (4.6 mm inner diameter×150 mm length, […], MilliporeSigma, Burlington, MA) with a ZIC-pHILIC guard column (4.6 mm inner diameter×20 mm length, MilliporeSigma, Burlington, MA) was used for chromatographic separation at a column temperature of 30° C. The mobile phases included 10 mM (NH4)2CO3 and 0.05% NH40H in H2O for mobile phase A, and […]. The LC gradient conditions were as follows: 0 to 13 min: a decreasing of 80% to 20% of mobile phase B, 13 to 15 min: 20% of mobile phase B. The ionization was set to negative mode, with the MS scan range set to 60 to 1000 m/z. The mass resolution was 70,000, and the AGC target was 1×106. The sample loading volume was 5 μl. The unlabeled or ^13C-labeled metabolite peaks were extracted using EL-Maven with a metabolite standard-based in-house library. For global metabolomic profiling, peak areas of metabolites were normalized by the median value of the total for identified metabolite peak areas in each sample. For the ^13C-labeled metabolite peaks, the natural isotope peak area was corrected using IsoCor (Version 2.2).

[6] = system: CAR T cells; experiment: Global metabolomics on CAR T cells from cocultures; assay type: cell-based, mouse; details: L-NIL (50 PM); coculture 48 h
Procedure: (§2) CAR T cell isolation from initial coculture for subsequent downstream assays: 1×10^6 CAR T cells and 1×10^6 Eμ-myc-GFP-FFL cells were cocultured in the absence or presence of 0.25×10^6 macrophages in a 6-well plate in 6 ml of media for 48 h. After initial coculture, cells were harvested, and T cells were isolated using Mouse T Cell Isolation Kit (STEMCELL Technologies). T cell purity was 100% as tested by flow cytometry. Percentage of CAR-expressing T cells was determined with flow cytometry and were subsequently used for downstream assays.
Global metabolomic profiling and 13C6-labeled glucose tracing of CAR T cells, 1×10^6 T cells were resuspended in either RPMI-1640 medium (RPMI+10% heat-inactivated dialyzed FBS) or ^13C6-glucose substituted RPMI-1640 medium (glucose-free RPMI+10% heat-inactivated dialyzed FBS+11.1 mM ^13C6-glucose). After 4 h incubation, cells were collected, rapidly centrifuged (17,000×g, 10 sec, room temperature), and medium was removed. T cells were washed with 1 ml of ice-cold PBS, and metabolites were extracted with 300 μl of 80% methanol via incubation at −80° C. for 15 min. Samples were centrifuged (17,000×g, 20 min, 4° C.), and supernatants were transferred to an Eppendorf tube and dried in a vacuum evaporator overnight. The dried extracts were resuspended in 20 μl of aqueous 50% methanol, clarified by centrifugation (17,000×g, 20 min, room temperature), and analyzed by LC-HRMS.
LC-HRMS analysis was performed on a Vanquish UPLC coupled with a Q-Exactive HF mass spectrometer, employing the same conditions as the previously established methods 76. A ZIC-pHILIC LC column (4.6 mm inner diameter×150 mm length, […], MilliporeSigma, Burlington, MA) with a ZIC-pHILIC guard column (4.6 mm inner diameter×20 mm length, MilliporeSigma, Burlington, MA) was used for chromatographic separation at a column temperature of 30° C. […]

[7] = system: CAR T cells; experiment: Seahorse assay (ECAR, OCR) on CAR T cells from cocultures; assay type: cell-based, mouse; details: L-NIL 50 μM; coculture 48 h
Procedure: as §2
Seahorse assay: ECAR and OCR were measured using a Seahorse Extracellular Flux Analyzer (Agilent Technologies). XF96 microplates were coated with CellTak a day before analyses. To assay glycolytic function, T cells were resuspended in glucose-free XF medium supplied with 2 mM L-glutamine and 1 mM sodium pyruvate and seeded at 2×10^5 cells in 180 μl per well. Following incubation in a CO2-free incubator for 60 min at 37° C. for pH stabilization, ECAR was measured in response to 10 mM glucose, 1 μM oligomycin, and 50 mM 2-deoxyglucose. […] Following incubation in a CO2-free incubator for 60 min at 37° C. for pH stabilization, OCR was measured in response to 1 μM oligomycin, 1 μM FCCP, and 0.5 μM rotenone and antimycin.

[8] = system: Eμ-myc B cell tumors; experiment: Survival of Eμ-myc tumor-bearing mice treated with CAR T cells and L-NIL; assay type: in vivo, mouse; details: combination of 1928z CAR T cells and L-NIL (i.p. once per day, 20 mg/kg) compared to 1928z CAR T cells alone; Eμ-myc tumors in peritoneal cavity
Procedure: Animal experiment: Six- to 10-week-old Rag1^+/+ mice of both sexes were intraperitoneally (i.p.) injected with 3×10^6 Eμ-myc-GFP-FFL cells to generate tumors localized in peritoneal cavity. Tumor engraftment was verified by bioluminescence imaging one day before CAR T cell transfer. Mice were randomized to different treatment groups without differences in pre-treatment tumor load. Seven days after tumor cell inoculation, mice were injected i.p. with 5×10^6 CAR T cells in 300 μl PBS. For survival experiments, L-NIL or PBS was administered i.p. once per day at 20 mg/kg body weight starting on the same day of tumor cell injection. […] Bioluminescence imaging was performed by IVIS Lumina III In Vivo Imaging System (PerkinElmer) with Living Image software (PerkinElmer).

[9] = CAR T cells and Eμ-myc cells with imMac, agent present (L-NIL 50 μM; anti-IFN-γ 10 μg/mL; c-PTIO)
[10] = CAR T cells isolated after 48 h coculture with imMac with agent (L-NIL 50 μM, supernatants at 36 h; anti-IFN-γ 10 μg/mL, at 24 h)

CC1(C)N([O])C(c2ccc(C(=O)O)cc2)=[N+]([O-])C1(C)C [c-PTIO, carboxyl-PTIO]
CAR T cell expansion in cocultures with imMac [1, 9]: partially rescued the expansion of CAR T cells

CC(=N)NCCCC[C@H](N)C(=O)O.Cl [L-NIL, N^6-(1-Iminoethyl)-lysine, hydrochloride]
CAR T cell expansion in cocultures with imMac [1, 9]: complete rescue of CAR T cell expansion
lysis of Eμ-myc cells by CAR T cells (capacity to kill tumor cells) ([2]; CAR T cells isolated after 48 h initial coculture with Eμ-myc cells and imMac with agent (L-NIL 50 μM; anti-IFN-γ 10 μg/mL)): preserved the capacity of CAR T cells to kill tumor cells
production of effector cytokine IFN-γ by CAR T cells [3, 10]: preserved
production of effector cytokine TNF-α by CAR T cells [3, 10]: preserved
production of NO in cocultures with imMac [4]: attenuated
production of citrulline in cocultures with imMac ([5]; coculture supernatants): attenuated
levels of arginine in coculture supernatants ([5]; cocultures with imMac): remained comparable
levels of ornithine in coculture supernatants ([5]; cocultures with imMac): remained comparable
depletion of dihydroxyacetone phosphate (DHAP) in CAR T cells cocultured with imMac [6]: reversal
depletion of fructose 1,6-bisphosphate (F1,6BP) in CAR T cells cocultured with imMac [6]: reversal
depletion of glyceraldehyde 3-phosphate (G3P) in CAR T cells cocultured with imMac [6]: reversal
glycolytic metabolic capacity (ECAR) of CAR T cells from cocultures with imMac [7]: preserved
oxidative metabolic capacity (OCR) of CAR T cells from cocultures with imMac [7]: preserved
survival of tumor-bearing mice [8]: significantly improved survival

N=C(NO)NCC[C@H](N)C(=O)O [nor-NOHA, N(omega)-hydroxy-nor-L-arginine]
CAR T cell expansion in cocultures with imMac ([1]; physiological arginine concentration (150 μM), nor-NOHA (50 PM)): failed to rescue CAR T cell expansion
CAR T cell expansion in cocultures with imMac ([1]; supraphysiological arginine concentration (1.15 mM) in culture media, nor-NOHA (50 PM)): did not restore CAR T cell expansion

C=C(CC(=O)OCCCCCCCC)C(=O)O [4-OI, 4-octyl itaconate]
CAR T cell expansion [1]: impaired CAR T cell expansion
CAR T cell expansion ([1]; listed as 4OI): reduced CAR T cell expansion
CAR T cell expansion ([1]; listed as 401): reduced CAR T cell expansion

COC(=O)CCC(=O)C(=O)OC [DMKG]
rescue of CAR T cell expansion by supplementation ([1]; FIG. 15, iNOS in imMac disrupts TCA cycle progression in CAR T cells): failed to rescue CAR T cell expansion

CC(=O)Oc1ccccc1C(=O)Oc1cccc(CO[N+](=O)[O-])c1 [NCX-4016]
CAR T cell expansion [1]: inhibition of CAR T cell expansion
lysis of Eμ-myc cells by CAR T cells (ability to kill tumor cells) [2]: diminished ability of CAR T cells to kill tumor cells
secretion of effector cytokine IFN-γ by CAR T cells [3]: diminished
secretion of effector cytokine TNF-α by CAR T cells [3]: diminished

NC(=O)NCCC[C@H](N)C(=O)O [citrulline]
CAR T cell expansion [1]: did not impact the expansion of CAR T cells

O=NOO [PNT, peroxynitrite]
CAR T cell expansion [1]: inhibition of CAR T cell expansion
lysis of Eμ-myc cells by CAR T cells (ability to kill tumor cells) [2]: diminished ability of CAR T cells to kill tumor cells
secretion of effector cytokine IFN-γ by CAR T cells [3]: diminished
secretion of effector cytokine TNF-α by CAR T cells [3]: diminished
